According to patent publication US20220144850A1, “INDOLO HEPTAMYL OXIME ANALOGUE AS PARP INHIBITOR” (Chia Tai Tianqing Pharmaceutical Group Co., Ltd., priority 2019, published 2022):

Key:
[1] = system: BRCA1-mutated MDA-MB-436 cells; assay: Anti-proliferation experiment on MDA-MB-436 CTG cells; type: cell-based, human; conditions: 7 days incubation, CellTiter-Glo
Procedure: Experimental Example 2: Anti-Proliferation Experiment on MDA-MB-436 CTG Cells
Experimental materials: test compounds; RPMI-1640 medium; fetal bovine serum; penicillin/streptomycin antibiotic; MDA-MB-436 cell line; Envision multi-marker analyzer (PerkinElmer).
MDA-MB-436 cells were seeded in a white 96-well plate by adding 80 μL of cell suspension (containing 3000 MDA-MB-436 cells) to each well. The cell plate was incubated in a CO2 incubator overnight.
(§1) Test compounds were serially 5-fold diluted to the 8th concentration with a multichannel pipette, i.e. from 2 mM to 26 nM, and a duplicate well experiment was performed. 78 μL of medium was added to a intermediate plate, 2 μL of each of serially diluted compounds was transferred to corresponding wells of the intermediate plate, and after mixing, the mixture was transferred to the cell plate at 20 μL per well. The cell plate was incubated in a CO2 incubator for 7 days. Another cell plate was provided for reading signal values on the day of compound addition and these signal values were used as Max values in data analysis. Promega CellTiter-Glo was added to this cell plate at 25 μL per well and the luminescence signals were stabilized by incubation for 10 min at room temperature. Readings were taken using a PerkinElmer Envision multi-marker analyzer.
(§2) Promega CellTiter-Glo was added to the cell plate at 25 μL per well and the luminescence signals were stabilized by incubation for 10 min at room temperature. Readings were taken using a PerkinElmer Envision multi-marker analyzer.
2. Data analysis: the original data was converted to inhibition using the equation (sample−Min)/(Max−Min)×100%, and the IC50 value was then curve fitted using four parameters (obtained from the “log(inhibitor) vs. response-variable slope” model in GraphPad Prism). Table 2 provides the inhibitory activity of the compounds disclosed herein against MDA-MB-436 cell proliferation.

[2] = system: BRCA-wild type MDA-MB-231 cells; assay: Anti-proliferation experiment on MDA-MB-231 CTG cells; type: cell-based; conditions: Homo sapiens, MDA-MB-231, 72 h; 3 days incubation, CellTiter-Glo
Procedure: Experimental Example 3: Anti-Proliferation Experiment on MDA-MB-231 CTG Cells
Experimental materials: test compounds; R DMEM medium; fetal bovine serum; penicillin/streptomycin antibiotic; MDA-MB-231 cell line; Envision multi-label analyzer.
MDA-MB-231 cells were seeded in a white 96-well plate by adding 80 μL of cell suspension (containing 5000 MDA-MB-231 cells) to each well. The cell plate was incubated in a CO2 incubator overnight.
as §1, with “Eight concentration points were set for each compound, test compounds” for “Test compounds”, “serially 3-fold” for “serially 5-fold”, “to 920” for “to 26”, “for 3” for “for 7”
as §2
Data analysis: the original data was converted to inhibition using the equation (sample−Min)/(Max−Min)×100%, and the IC50 value was then curve fitted using four parameters (obtained from the “log(inhibitor) vs. response-variable slope” model in GraphPad Prism). Table 1 provides the inhibitory activity of the compounds disclosed herein against MDA-MB-231 cell proliferation.

[3] = Plasma protein binding rate, human plasma (equilibrium dialysis); type: in vitro ADME; conditions: dialysis 4 h at 37° C.
Procedure: (§3) Experimental Example 5: Study on Plasma Protein Binding Rate
(§4) The protein binding rates of the compounds disclosed herein in plasma of human, CD-1 mice and SD rats were determined. 796 μL of blank plasma was taken from human, CD-1 mice and SD rats, and added with 4 μL of test compound working solution (400. μM) or warfarin working solution (400 μM) to achieve a final concentration of 2 μM of both the test compound and the warfarin in the plasma sample. The samples were mixed well. The final concentration of organic phase DMSO was 0.5%; 50 μL of test compound and warfarin plasma sample was pipetted into a sample receiving plate (three parallels), and a corresponding volume of blank plasma or buffer was immediately added such that the final volume of each sample well was 100 μL. The volume ratio of plasma to dialysis buffer was 1:1, and 400 μL of stop solution was added to these samples, which were used as TO samples for determination of recovery rate and stability. The TO samples were stored at 2-8° C. for subsequent treatment with other dialyzed samples; 150 μL of the test compound and warfarin plasma sample was added to a drug delivery end of each dialysis well, and 150 μL of blank dialysis buffer was added to a corresponding receiving end of the dialysis well. The dialysis plate was then sealed with a gas permeable membrane and placed in a humid, 5% CO2 incubator and incubated at 37° C. for 4 h while shaking at about 100 rpm. After the dialysis was completed, 50 μL of the dialyzed buffer sample and dialyzed plasma sample were pipetted to a new sample receiving plate. A corresponding volume of corresponding blank plasma or buffer was added to the samples such that the final volume of each sample well was 100 μL, and the volume ratio of plasma to dialysis buffer was 1:1. All samples were subjected to LC/MS analysis after protein precipitation, and the protein binding rates and the recovery rates were calculated by the following formulas: protein unbinding rate (%)=100×drug concentration passing through dialysis membrane/drug concentration not passing through dialysate; protein binding rate (%)=100−protein unbinding rate (%); recovery rate (%)=100×(drug concentration passing through dialysis membrane+drug concentration not passing through dialysate)/total drug concentration before dialysis.

[4] = Plasma protein binding rate, CD-1 mouse plasma (equilibrium dialysis); type: in vitro ADME; conditions: CD-1 mice plasma, dialysis 4 h at 37° C.
Procedure: as §3, §4

[5] = Metabolic stability in liver microsomes, human; type: in vitro ADME; conditions: Human liver microsomes 0.5 mg/mL, 1 μM compound, NADPH, 37° C.
Procedure: (§5) Experimental Example 7. Metabolic Stability in Liver Microsomes
(§6) Experimental objective: to test the metabolic stability of test compounds in liver microsomes of three species.
(§7) Experimental method: 1 μM test compound and a microsome (0.5 mg/mL) were incubated at 37° C. in the presence of an NADPH regeneration system; positive controls were testosterone (3A4 substrate), propylamine propiophenone (2D6 substrate) and diclofenac (2C9 substrate), and also at 37° C., a positive control was incubated with a microsome (0.5 mg/mL) in the presence of an NADPH regenerating system; the reaction was stopped by direct mixing of the sample with cold acetonitrile containing an internal standard at various time points (0, 5, 10, 20, 30 and 60 min); the compound and microsome were incubated for 60 min in the absence of an NADPH regenerating system; one parallel (n=1) was set at each time point; the samples were analyzed by LC/MS/MS; the concentration of the compound was characterized by the ratio of the analyte peak area to the internal standard peak area.

[6] = Metabolic stability in liver microsomes, rat; type: in vitro ADME; conditions: Rat liver microsomes 0.5 mg/mL, 1 μM compound, NADPH, 37° C.
Procedure: as §5, §6, §7

[7] = Homo sapiens, MDA-MB-436, 168 h

SMILES	IC50 [1] [nM]	IC50 [2] [nM]	fraction unbound at 4 h, 2 μM [3]	fraction unbound at 4 h, 2 μM [4]	Residual content after 60 min of incubation [5] [%]	Residual content after 60 min of incubation [6] [%]	IC50 [1, 7] [nM]
CC1(c2ccc(-c3[nH]c4cc(F)cc5c4c3CONC5=O)cc2)CCCN1 (stereo not drawn) [Example 25_A]	–	> 10000	0.149	0.104	35.9	31.8	12.3
CC1(c2ccc(-c3[nH]c4cccc5c4c3CONC5=O)cc2)CCCN1 (stereo not drawn) [Example 6_A]	–	> 10000	0.181	0.208	53.7	55.4	16.9

Other lines, results leading:

IC50 [1] [nM]	IC50 [2] [nM]	fraction unbound at 4 h, 2 μM [3]	fraction unbound at 4 h, 2 μM [4]	Residual content after 60 min of incubation [5] [%]	Residual content after 60 min of incubation [6] [%]	IC50 [1, 7] [nM]	SMILES
9.6	> 10000	0.073	0.037	60.4	60.6	–	O=C1NOCc2c(-c3ccc(C4CCCN4)cc3)[nH]c3cc(F)cc1c23 (single isomer, unassigned) [Example 24_A]
–	> 10000	0.235	0.101	73.8	58.1	70.2	O=C1NOCc2c(-c3ccc(C4CCCN4)c(F)c3)[nH]c3cccc1c23 (stereo not drawn) [Example 11_A]
8.4	> 10000	0.057	0.08	29.6	34.5	–	CC1(c2ccc(-c3[nH]c4cc(F)cc5c4c3CONC5=O)cc2F)CCCN1 (single isomer, unassigned) [Example 26_A]
